Key:
[1] = test system: antibodies in sera from SARS patients (sera 1a, 1b, 2, 6, 37, 62, London, SARS-yellow, SARS-green); assay type: binding, human; design: Binding of serum 6 to linear peptides of protein X1 of SARS-CoV Urbani / Binding of serum 37 to linear peptides of protein X1 of SARS-CoV Urbani / Binding of serum 6 to looped/cyclic peptide (PEPSCAN-ELISA) / Binding of serum 37 to looped/cyclic peptide (PEPSCAN-ELISA) / Binding of serum 37 to looped/cyclic peptides of protein X1 of SARS-CoV Urbani / Binding of serum 6 to linear peptides of protein X2 / Binding of serum 37 to linear peptides of protein X2 / Binding of serum 37 to looped/cyclic peptides of protein X2 of SARS-CoV Urbani / Binding of serum 6 to linear peptides of protein M of SARS-CoV Urbani / Binding of serum 37 to linear peptides of protein M of SARS-CoV Urbani / Binding of serum 6 to looped/cyclic peptides of protein M of SARS-CoV Urbani / Binding of serum 37 to looped/cyclic peptides of protein M of SARS-CoV Urbani / Binding of serum 6 to linear peptides of protein X3 of SARS-CoV Urbani / Binding of serum 37 to linear peptides of protein X3 of SARS-CoV Urbani / Binding of serum 37 to looped/cyclic peptides of protein X3 of SARS-CoV Urbani / Binding of serum 6 to linear peptides of protein X4 of SARS-CoV Urbani / Binding of serum 37 to linear peptides of protein X4 of SARS-CoV Urbani / Binding of serum 37 to looped/cyclic peptides of protein X4 of SARS-CoV Urbani / Binding of serum 6 to linear peptides of protein X5 of SARS-CoV Urbani / Binding of serum 37 to linear peptides of protein X5 of SARS-CoV Urbani / Binding of serum 37 to looped/cyclic peptides of protein X5 of SARS-CoV Urbani / Binding of serum 6 to linear peptides of protein N of SARS-CoV Urbani / Binding of serum 37 to linear peptides of protein N of SARS-CoV Urbani / Binding of serum 6 to linear peptide (PEPSCAN-ELISA) / Binding of serum 1a to looped/cyclic peptides of protein N of SARS-CoV Urbani / Binding of serum 1b to looped/cyclic peptides of protein N of SARS-CoV Urbani / Binding of serum 2 to looped/cyclic peptides of protein N of SARS-CoV Urbani / Binding of serum 6 to looped/cyclic peptides of protein N of SARS-CoV Urbani / Binding of serum 37 to looped/cyclic peptides of protein N of SARS-CoV Urbani / Binding of serum 62 to looped/cyclic peptides of protein N of SARS-CoV Urbani / Binding of serum London to looped/cyclic peptides of protein N of SARS-CoV Urbani / Binding of serum SARS-green to looped/cyclic peptides of protein N of SARS-CoV Urbani: unit not given here
[2] = test system: control sera (pooled serum of ten healthy LUMC hospital workers; commercial negative donor pooled serum from the Dutch bloodbank); assay type: binding, human; design: Binding of Control serum LUMC to linear peptides / Binding of Control serum Blood-bank to linear peptides / Binding of Control serum LUMC to looped peptides / Binding of Control Serum Blood-Bank to Looped peptides / Binding of Control serum LUMC to linear peptides of the protein M of SARS-CoV Urbani / Binding of Control serum Blood-bank to linear peptides of the protein M of SARS-CoV Urbani / Binding of Control serum LUMC to looped peptides of the protein M of SARS-CoV Urbani / Binding of Control Serum Blood-Bank to Looped peptides of the protein M of SARS-CoV Urbani: unit not given here
[3] = test system: rabbit serum obtained by immunizing a rabbit with the SARS-CoV strain Frankfurt 1; assay type: binding; design: Binding of a rabbit serum to linear peptides / Binding of a rabbit serum to looped peptides / Rabbit serum linear peptides / Rabbit serum looped peptides / Binding of a rabbit serum to linear peptides of protein N of SARS-CoV Urbani (Rabbit serum linear peptides) / Binding of a rabbit serum to looped/cyclic peptides of protein N of SARS-CoV Urbani (Rabbit serum looped peptides): unit not given here
[4] = test system: recombinant human anti-SARS-CoV antibody 03-018; assay type: binding; design: Binding of antibody 03-018 to linear peptides of the N protein of SARS-CoV Urbani / Binding of antibody 03-018 to looped/cyclic peptides of the N protein of SARS-CoV Urbani: unit not given here

Sequence: KQYNVTQAFGRRGPE
- Binding of serum 1a to linear peptide (PEPSCAN-ELISA) [1]: 0.3
- Binding of serum 1a to looped/cyclic peptides of protein N of SARS-CoV Urbani [1]: 0.0
- Binding of serum 1b to linear peptide (PEPSCAN-ELISA) [1]: 0.1
- Binding of serum 1b to looped/cyclic peptides of protein N of SARS-CoV Urbani [1]: 0.0
- Binding of serum 2 to linear peptide (PEPSCAN-ELISA) [1]: 0.1
- Binding of serum 2 to looped/cyclic peptides of protein N of SARS-CoV Urbani [1]: 0.1
- Binding of serum 6 to linear peptide (PEPSCAN-ELISA) [1]: 0.2
- Binding of serum 6 to looped/cyclic peptides of protein N of SARS-CoV Urbani [1]: 0.2
- Binding of serum 37 to linear peptide (PEPSCAN-ELISA) [1]: 0.6
- Binding of serum 37 to looped/cyclic peptides of protein N of SARS-CoV Urbani [1]: 0.0
- Binding of serum 62 to linear peptide (PEPSCAN-ELISA) [1]: 0.7
- Binding of serum 62 to looped/cyclic peptides of protein N of SARS-CoV Urbani [1]: 0.0
- Binding of serum London to linear peptide (PEPSCAN-ELISA) [1]: 0.5
- Binding of serum London to looped/cyclic peptides of protein N of SARS-CoV Urbani [1]: 0.2
- Binding of serum SARS-green to linear peptide (PEPSCAN-ELISA) [1]: 0.3
- Binding of serum SARS-green to looped/cyclic peptides of protein N of SARS-CoV Urbani [1]: 0.4
- Binding of serum SARS-yellow to linear peptide (PEPSCAN-ELISA) [1]: 0.6
- Binding of serum SARS-yellow to looped/cyclic peptides of protein N of SARS-CoV Urbani [1]: 0.0
- Binding of Control Serum Blood-Bank to Looped peptides [2]: 0.5
- Binding of Control serum Blood-bank to linear peptides [2]: 0.6
- Binding of Control serum LUMC to linear peptides [2]: 0.7
- Binding of Control serum LUMC to looped peptides [2]: 0.5
- Recognition of the peptide by the rabbit serum [3]: recognized
- Binding of antibody 03-018 to linear peptides of the N protein of SARS-CoV Urbani [4]: 0.1
- Binding of antibody 03-018 to looped/cyclic peptides of the N protein of SARS-CoV Urbani [4]: 0.1

Sequence: NTASWFTALTQHGKE
- Binding of serum 1a to linear peptides of protein N of SARS-CoV Urbani [1]: 0.2
- Binding of serum 1a to looped/cyclic peptides of protein N of SARS-CoV Urbani [1]: 0.2
- Binding of serum 1b to linear peptides of protein N of SARS-CoV Urbani [1]: 0.1
- Binding of serum 1b to looped/cyclic peptides of protein N of SARS-CoV Urbani [1]: 0.2
- Binding of serum 2 to linear peptides of protein N of SARS-CoV Urbani [1]: 0.1
- Binding of serum 2 to looped/cyclic peptides of protein N of SARS-CoV Urbani [1]: 0.2
- Binding of serum 6 to linear peptides of protein N of SARS-CoV Urbani [1]: 0.1
- Binding of serum 6 to looped/cyclic peptides of protein N of SARS-CoV Urbani [1]: 0.1
- Binding of serum 37 to linear peptides of protein N of SARS-CoV Urbani [1]: 0.7
- Binding of serum 37 to looped/cyclic peptides of protein N of SARS-CoV Urbani [1]: 0.4
- Binding of serum 62 to linear peptides of protein N of SARS-CoV Urbani [1]: 0.5
- Binding of serum 62 to looped/cyclic peptides of protein N of SARS-CoV Urbani [1]: 0.3
- Binding of serum London to linear peptides of protein N of SARS-CoV Urbani [1]: 0.4
- Binding of serum London to looped/cyclic peptides of protein N of SARS-CoV Urbani [1]: 0.3
- Binding of serum SARS-green to linear peptides of protein N of SARS-CoV Urbani [1]: 0.4
- Binding of serum SARS-green to looped/cyclic peptides of protein N of SARS-CoV Urbani [1]: 0.3
- Binding of serum SARS-yellow to linear peptides of protein N of SARS-CoV Urbani [1]: 0.5
- Binding of serum SARS-yellow to looped/cyclic peptides of protein N of SARS-CoV Urbani [1]: 0.3
- Binding of Control Serum Blood-Bank to Looped peptides [2]: 0.5
- Binding of Control serum Blood-bank to linear peptides [2]: 0.5
- Binding of Control serum LUMC to linear peptides [2]: 0.6
- Binding of Control serum LUMC to looped peptides [2]: 0.4
- Binding of a rabbit serum to linear peptides of protein N of SARS-CoV Urbani (Rabbit serum linear peptides) [3]: 0.1
- Binding of a rabbit serum to looped/cyclic peptides of protein N of SARS-CoV Urbani (Rabbit serum looped peptides) [3]: 0.1
- Binding of antibody 03-018 to linear peptides of the N protein of SARS-CoV Urbani [4]: 0.1
- Binding of antibody 03-018 to looped/cyclic peptides of the N protein of SARS-CoV Urbani [4]: 0.2

Sequence: SAFFGMSRIGMEVTP
- Binding of serum 1a to linear peptides of protein N of SARS-CoV Urbani [1]: 0.3
- Binding of serum 1a to looped/cyclic peptides of protein N of SARS-CoV Urbani [1]: 0.4
- Binding of serum 1b to linear peptides of protein N of SARS-CoV Urbani [1]: 0.2
- Binding of serum 1b to looped/cyclic peptides of protein N of SARS-CoV Urbani [1]: 0.3
- Binding of serum 2 to linear peptides of protein N of SARS-CoV Urbani [1]: 0.2
- Binding of serum 2 to looped/cyclic peptides of protein N of SARS-CoV Urbani [1]: 0.4
- Binding of serum 6 to linear peptides of protein N of SARS-CoV Urbani [1]: 0.2
- Binding of serum 6 to looped/cyclic peptides of protein N of SARS-CoV Urbani [1]: 0.2
- Binding of serum 37 to linear peptides of protein N of SARS-CoV Urbani [1]: 0.7
- Binding of serum 37 to looped/cyclic peptides of protein N of SARS-CoV Urbani [1]: 0.5
- Binding of serum 62 to linear peptides of protein N of SARS-CoV Urbani [1]: 0.8
- Binding of serum 62 to looped/cyclic peptides of protein N of SARS-CoV Urbani [1]: 0.4
- Binding of serum London to linear peptides of protein N of SARS-CoV Urbani [1]: 0.6
- Binding of serum London to looped/cyclic peptides of protein N of SARS-CoV Urbani [1]: 0.4
- Binding of serum SARS-green to linear peptides of protein N of SARS-CoV Urbani [1]: 0.3
- Binding of serum SARS-green to looped/cyclic peptides of protein N of SARS-CoV Urbani [1]: 0.4
- Binding of serum SARS-yellow to linear peptides of protein N of SARS-CoV Urbani [1]: 0.7
- Binding of serum SARS-yellow to looped/cyclic peptides of protein N of SARS-CoV Urbani [1]: 0.5
- Control Serum Blood-Bank Looped peptides [2]: 0.6
- Control serum Blood-bank linear peptides [2]: 0.8
- Control serum LUMC linear peptides [2]: 0.7
- Control serum LUMC looped peptides [2]: 0.5
- Binding of a rabbit serum to linear peptides of protein N of SARS-CoV Urbani (Rabbit serum linear peptides) [3]: 0.2
- Binding of a rabbit serum to looped/cyclic peptides of protein N of SARS-CoV Urbani (Rabbit serum looped peptides) [3]: 0.5
- Binding of antibody 03-018 to linear peptides of the N protein of SARS-CoV Urbani [4]: 0.1
- Binding of antibody 03-018 to looped/cyclic peptides of the N protein of SARS-CoV Urbani [4]: 0.2

Sequence: SAPRITFGGPTDSTD
- Binding of serum 1a to linear peptides of protein N of SARS-CoV Urbani [1]: 0.2
- Binding of serum 1a to looped/cyclic peptides of protein N of SARS-CoV Urbani [1]: 0.3
- Binding of serum 1b to linear peptides of protein N of SARS-CoV Urbani [1]: 0.2
- Binding of serum 1b to looped/cyclic peptides of protein N of SARS-CoV Urbani [1]: 0.2
- Binding of serum 2 to linear peptides of protein N of SARS-CoV Urbani [1]: 0.1
- Binding of serum 2 to looped/cyclic peptides of protein N of SARS-CoV Urbani [1]: 0.2
- Binding of serum 6 to linear peptides of protein N of SARS-CoV Urbani [1]: 0.1
- Binding of serum 6 to looped/cyclic peptides of protein N of SARS-CoV Urbani [1]: 0.1
- Binding of serum 37 to linear peptides of protein N of SARS-CoV Urbani [1]: 0.7
- Binding of serum 37 to looped/cyclic peptides of protein N of SARS-CoV Urbani [1]: 0.5
- Binding of serum 62 to linear peptides of protein N of SARS-CoV Urbani [1]: 0.6
- Binding of serum 62 to looped/cyclic peptides of protein N of SARS-CoV Urbani [1]: 0.3
- Binding of serum London to linear peptides of protein N of SARS-CoV Urbani [1]: 0.5
- Binding of serum London to looped/cyclic peptides of protein N of SARS-CoV Urbani [1]: 0.3
- Binding of serum SARS-green to linear peptides of protein N of SARS-CoV Urbani [1]: 0.6
- Binding of serum SARS-green to looped/cyclic peptides of protein N of SARS-CoV Urbani [1]: 0.9
- Binding of serum SARS-yellow to linear peptides of protein N of SARS-CoV Urbani [1]: 0.4
- Binding of serum SARS-yellow to looped/cyclic peptides of protein N of SARS-CoV Urbani [1]: 0.4
- Binding of Control Serum Blood-Bank to Looped peptides [2]: 0.5
- Binding of Control serum Blood-bank to linear peptides [2]: 0.4
- Binding of Control serum LUMC to linear peptides [2]: 0.5
- Binding of Control serum LUMC to looped peptides [2]: 0.4
- Binding of a rabbit serum to linear peptides of protein N of SARS-CoV Urbani (Rabbit serum linear peptides) [3]: 0.2
- Binding of a rabbit serum to looped/cyclic peptides of protein N of SARS-CoV Urbani (Rabbit serum looped peptides) [3]: 0.5
- Recognition of the peptide by antibody 03-018 [4]: recognized

— US20070128217A1 (priority 2003, published 2007)
